How the values were obtained:
[1] = Particle size and polydispersity index of nanoparticle compositions (Zetasizer Nano ZS); format: physicochemical; conditions: Table 1A; for Size (nm): lipid:DSPC:cholesterol:PEG-DMG 50:10:38.5:1.5 mol %
In short: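 Measured in 1×PBS by Zetasizer Nano ZS.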

[2] = tested on: IL-6, IP-10; assay: Cytokine induction in mice upon intravenous administration; format: in vivo; parameters: Cytokine induction IL-6 / Cytokine induction IP-10: unit not given here; conditions: 0.5 mpk, 6 hours; for Cytokine induction IL-6 / Cytokine induction IP-10: intravenous
From the text: The introduction of foreign material into a mammalian body induces an innate immune response that promotes cytokine production. Such immune responses to, for example, nanoparticle compositions including therapeutic and/or prophylactics, are undesirable. The induction of certain cytokines is thus measured to evaluate the […] of nanoparticle compositions. The concentrations of various cytokines in mice upon intravenous administration of nanoparticle compositions presented in Table 1A at a dosage of 0.5 mpk was measured at 6 hours. The standard MC3 formulation and a PBS control were also tested. As is evident in Table 7, IL-6 induction was highest for compositions including Compounds 1, 3, 9, 19, and 26, while IP-10 induction was highest for compositions including Compounds 3, 4, 7, 20, and 26. IL-6 induction was lowest for compositions including Compounds 4, 11, 12, and 28. IP-10 induction was lowest for compositions including Compounds 10, 11, 12, 13, 15, 17, and 18.

[3] = Encapsulation efficiency of RNA (QUANT-IT RIBOGREEN RNA assay); format: physicochemical; conditions: Table 1A
In short: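 RiboGreen fluorescence (ex ~480, em ~520 nm) compared between intact samples and Triton X-100-lysed samples after 15 min at 37 °C in TE buffer, pH 7.5. Percent free RNA is the blank-corrected intact/disrupted ratio.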

[4] = Apparent (surface) pKa of the LNP formulation (TNS assay); format: physicochemical; conditions: for pKa: Table 1A
In short: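 Fluorescence of TNS probe added to LNP samples (mRNA 0.04 mg/mL) was read across 21 buffers of pH about 3-12, triplicate per pH. The inflection point of the sigmoidal fluorescence-vs-pH curve, […], gives apparent pKa; method validated in 1× PBS and Tris/sucrose buffer.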

[5] = tested on: luciferase (Luc) mRNA; assay: Luc expression in liver, lung, spleen and femur 6 hours after intravenous administration; format: in vivo; conditions: mice, 0.5 mpk
In short: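 LNP-formulated mRNA given IV to mice (n=3) at 0.5 mpk; at 6 h, bioluminescence imaged ex vivo 15 min after IP D-luciferin (15 mg/mL, 200 μL), organs imaged within 25 min. Values are total flux by region of interest.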

[6] = tested on: luciferase (Luc) mRNA; assay: Luc expression, whole body bioluminescence after intravenous administration to mice; format: in vivo; conditions: for Fold increase in total body Luc Flux relative to MC3 at 6 h: Table 3A, i.v. administration; for Total Flux 3 hours / Total Flux 6 hours / Total Flux 24 hours / total flux at 3 hours: mice, i.v., 0.5 mg/kg; for Total Flux 3 hours / Total Flux 6 hours / Total Flux 24 hours: Luc mRNA; for total flux at 3 hours: comparison in words
In short: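 Bioluminescence, read as region-of-interest total flux at 3, 6 and 24 h, followed a single 0.5 mg/kg intravenous dose of Luc mRNA-loaded nanoparticles in mice (n=6). Luciferin substrate (200 μL, 15 mg/mL in PBS) was injected intraperitoneally into CD-1 mice 15 minutes ahead of each imaging point.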

[7] = tested on: luciferase (Luc) mRNA; assay: Luc expression (total flux) after intramuscular administration; format: in vivo, mice; conditions: for Total flux, 0.001 mpk Dose / Total flux, 0.01 mpk Dose: Luc mRNA and H10 mRNA; for AUC (p/s * h) / Lipid/MC3 AUC: Table 3H, intramuscular, Luc
Experimental: In order to monitor how effectively various nanoparticle compositions deliver therapeutic and/or prophylactics to targeted cells, different nanoparticle compositions including a particular therapeutic and/or prophylactic (for example, a modified or naturally occurring RNA such as an mRNA) are prepared and administered to rodent populations. Mice are intravenously, intramuscularly, intraarterially, or intratumorally administered a single dose including a nanoparticle composition with a formulation such as those provided in Example 3. In some instances, mice may be made to inhale doses. Dose sizes may range from 0.001 mg/kg to 10 mg/kg, where 10 mg/kg describes a dose including 10 mg of a therapeutic and/or prophylactic in a nanoparticle composition for each 1 kg of body mass of the mouse. A control composition including PBS may also be employed.
Sample formulations including both modified luciferase (Luc) mRNA and H10 mRNA were prepared and administered intramuscularly and the resulting expression and immunogenicity were evaluated simultaneously. Formulations including compounds according to Formula (I), (IA), (IB), (II), (IIa), (IIb), (IIc), (IId), (IIe), (IIf), (IIg), (III), (VI), (VI-a), (VII), (VIII), (VIIa), (VIIIa), (VIIIb), (VIIb-1), (VIIb-2), (VIIb-3), (VIIc), (VIId), (VIIIc), or (VIIId) were prepared and administered at doses of 0.001 and 0.01 mpk (e.g., doses of 0.0005 mpk of a formulation including Luc mRNA and a formulation including H10 mRNA or doses of 0.005 mpk of a formulation including Luc mRNA and a formulation including H10 mRNA).
Sample formulations including modified luciferase (Luc) mRNA prepared and administered intramuscularly and the resulting expression and immunogenicity were evaluated simultaneously. Formulations including compounds according to Formula (I), (IA), (IB), (II), (IIa), (IIb), (IIc), (IId), (IIe), (IIf), (IIg), (III), (VI), (VI-a), (VII), (VIII), (VIIa), (VIIIa), (VIIIb), (VIIb-1), (VIIb-2), (VIIb-3), (VIIc), (VIId), (VIIIc), or (VIIId) were prepared and administered at dose of and 0.01 mpk.

[8] = 6 hours after intramuscular administration
[9] = 6 hours after intramuscular administration, 0.01 mpk

SMILES	PDI [1]	Size (nm) [1] [nm]	EE (%) [3] [%]	pKa [4]	Total Flux Liver ([5]; intravenous)	Total Flux Lung ([5]; intravenous)	Total Flux Spleen ([5]; intravenous)	Fold increase in total body Luc Flux relative to MC3 at 6 h [6]	Total Flux 3 hours [6]	Total Flux 6 hours [6]	Total Flux 24 hours [6]	Total flux, 0.001 mpk Dose [7, 8] [p/s]	Total flux, 0.01 mpk Dose [7, 9] [p/s]	also measured
CCCCCCCCC(CCCCCCCC)OC(=O)CCCCCCCN(CCO)CCCCCCCC [Compound 4, Heptadecan-9-yl 8-((2-hydroxyethyl)(octyl)amino)octanoate]	0.21	120.5	95.10	6.33	5.26E+09	6.22E+07	4.09E+08	1.31	1.37E+11	6.01E+10	1.13E+09	–	–	IL-6 induction ([2]; i.v., in words): lowest; IP-10 induction ([2]; i.v., in words): highest; Cytokine induction IL-6 [2]: 13.1375; Cytokine induction IP-10 [2]: 2253.09; Flux in the spleen ([5]; i.v., in words): highest; total flux at 3 hours [6]: highest
CCCCCCCCCN(CCCCCCCC(=O)OC(CCCCCCCC)CCCCCCCC)CCCn1ccnc1 [Compound 8, Heptadecan-9-yl 8-((3-(1H-imidazol-1-yl)propyl)(nonyl)amino)octanoate]	0.15	121.0	95.8	6.64	7.87E+08	4.06E+06	1.51E+08	–	7.43E+09	6.71E+09	7.84E+08	7.81E+05	3.32E+06	–
CCCCCCCCCOC(=O)CCCCCCCN(CCO)CCCCCCCC(=O)OC(CCCCCC)CCCCCCCC (stereo not drawn) [Compound 32, nonyl 8-((2-hydroxyethyl)(8-oxo-8-(pentadecan-7-yloxy)octyl)amino) octanoate]	0.18	105.6	94.87	6.75	8.52E+09	1.16E+07	1.70E+08	1.39	8.65E+10	6.08E+10	1.92E+09	7.37E+05	1.03E+07	total flux at 3 hours [6]: highest
CCCCCCCCCOC(=O)CCCCCCCN(CCO)CCCCCCCC(=O)OC(CC)CCCCCCCC (stereo not drawn) [Compound 35, nonyl 8-((2-hydroxyethyl)(8-oxo-8-(undecan-3-yloxy)octyl)amino) octanoate]	0.18	151.1	90.82	6.85	1.63E+08	2.06E+06	1.23E+08	0.028	9.82E+08	1.24E+09	5.09E+07	2.45E+06	8.12E+06	–

Now from value to compound, other results behind:

PDI [1]	Size (nm) [1] [nm]	EE (%) [3] [%]	pKa [4]	SMILES	Total Flux Liver ([5]; intravenous)	Total Flux Lung ([5]; intravenous)	Total Flux Spleen ([5]; intravenous)	Fold increase in total body Luc Flux relative to MC3 at 6 h [6]	Total Flux 3 hours [6]	Total Flux 6 hours [6]	Total Flux 24 hours [6]	Total flux, 0.001 mpk Dose [7, 8] [p/s]	Total flux, 0.01 mpk Dose [7, 9] [p/s]	also measured
0.18	102.9	89.60	6.09	CCCCCCCCCOC(=O)CCCCCCCN(CCCCCCCC(=O)OC(CCCCCCCC)CCCCCCCC)CC(C)O (stereo not drawn) [Compound 10, Heptadecan-9-yl 8-((2-hydroxypropyl)(8-(nonyloxy)-8-oxooctyl)amino) octanoate]	3.22E+08	8.85E+05	8.17E+06	–	6.03E+08	2.37E+09	4.04E+07	–	–	IP-10 induction ([2]; i.v., in words): lowest; Cytokine induction IL-6 [2]: 88.81; Cytokine induction IP-10 [2]: 138.16; Total Flux Femur ([5]; intravenous, femur): 5.09E+05
0.24	71	97.54	5.88	CCCCCCCCC(CCCCCCCC)OC(=O)CCCCCCCN(CCO)CCCC(=O)OC(CCCCC)CCCCCCCC (stereo not drawn) [Compound 71, Heptadecan-9-yl 8-((2-hydroxyethyl)(4-oxo-4-(tetradecan-6-yloxy)butyl)amino)octanoate]	7.93E+08	4.86E+06	8.04E+06	0.418	4.09E+09	9.28E+09	6.51E+07	–	–	AUC (p/s * h) [7]: 6.61E+07 p/s * h; Lipid/MC3 AUC [7]: 0.11
0.11	65.1	98.8	6.42	CCCCCCCCCOC(=O)CCCCCCCN(CCCCCCCC(=O)OC(CCCCCCCC)CCCCCCCC)CCCn1ccc(=O)[nH]c1=O [Compound 114, Heptadecan-9-yl 8-((3-(2,4-dioxo-3,4-dihydropyrimidin-1(2H)-yl)propyl)(8-(nonyloxy)-8-oxooctyl)amino)octanoate]	–	–	–	–	8.41E+07	5.98E+07	–	–	–	Total flux (p/s) 0.01 mpk Dose ([7]; Table 5B, 6 hours after intramuscular administration, 0.01 mpk): 3.31E+06 p/s
0.11	68.1	98.47	6.572	CCCCCCCCCOC(=O)CCCCCCCN(CCCCCCCC(=O)OC(CCCCCCCC)CCCCCCCC)C(CO)CO [Compound 156, Heptadecan-9-yl 8-((1,3-dihydroxypropan-2-yl)(8-(nonyloxy)-8-oxooctyl)amino)octanoate]	6.51E+08	1.92E+06	1.82E+07	–	5.68E+09	1.03E+10	6.53E+07	–	–	AUC (p/s * h) [7]: 3.92E+07 p/s * h; Lipid/MC3 AUC [7]: 0.07; App. pKa ([4]; Table 3F): 6.57; Lipid/MC3 AUC ([6]; Table 3D, intravenous): 0.61; AUC (p/s * h) ([6]; Table 3D, intravenous, Luc): 1.170E+011 p/s * h

— patent US12263248B2, “Compounds and compositions for intracellular delivery of therapeutic agents” (ModernaTX, Inc., priority 2018, dated 2025)
